Results from patent US7495027B2, “3-aryl-4-hydroxyfuranone compounds and the human and animal health use thereof” (Wyeth, priority 2003, dated 2009).
pIC50: −log10 of the molar value. ≈ marks a conversion by molar mass, not a printed value. Read-outs that look alike come from different tables or passages of the source.

Experiments:
[1] = Toxicity in treated gerbils (deaths or significant weight loss); assay type: in vivo; parameters: key: +: Toxicity is indicated for those groups having one or more animals expired; conditions: single oral dose of 50 mg/kg, groups of 3
Experimental: In this evaluation, gerbils are infected with Trichostrongylus columbriformis infective larvae at a concentration of approximately 800 L3/mL. Larvae for gerbil infections are cultured from feces from sheep previously infected with T. colubriformis. One week post infection, test compounds are administered by gavage as a single oral dose of 50 mg/kg of body weight. For each group of 3 gerbils, 10 mg of test compound are dissolved in 2 mL of PEG 400:DMSO (1:2 v/v) and each animal is administered the test solution at a rate of 0.1 mL/10 g of body weight. […] All animals are observed daily for morbidity and mortality. Four days post-treatment, all animals are weighed and necropsied. Worm counts are conducted with the use of stereoscopes and counters.

[2] = system: Trichostrongylus columbriformis; experiment: In vivo efficacy against T. colubriformis in infected gerbils; conditions: gerbils infected with T. colubriformis; single oral dose of 50 mg/kg by gavage; worm counts four days post-treatment; % mortality as compared to negative control
Outline: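 Gerbils infected with ~800 L3/mL larvae were treated one week later by gavage with a single 50 mg/kg oral dose in PEG 400:DMSO (1:2 v/v), 3 animals per group. Necropsy four days post-treatment, with worms counted under stereoscopes.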

[3] = biological target: E. coli UDP-N-acetylglucosamine enolpyruvoyl transferase, MurA (Escherichia coli, UniProt P0A749); experiment: biochemical; conditions: (E) E. coli enzyme
Chain of E. coli UDP-N-acetylglucosamine enolpyruvoyl transferase, MurA (P0A749 whole entry): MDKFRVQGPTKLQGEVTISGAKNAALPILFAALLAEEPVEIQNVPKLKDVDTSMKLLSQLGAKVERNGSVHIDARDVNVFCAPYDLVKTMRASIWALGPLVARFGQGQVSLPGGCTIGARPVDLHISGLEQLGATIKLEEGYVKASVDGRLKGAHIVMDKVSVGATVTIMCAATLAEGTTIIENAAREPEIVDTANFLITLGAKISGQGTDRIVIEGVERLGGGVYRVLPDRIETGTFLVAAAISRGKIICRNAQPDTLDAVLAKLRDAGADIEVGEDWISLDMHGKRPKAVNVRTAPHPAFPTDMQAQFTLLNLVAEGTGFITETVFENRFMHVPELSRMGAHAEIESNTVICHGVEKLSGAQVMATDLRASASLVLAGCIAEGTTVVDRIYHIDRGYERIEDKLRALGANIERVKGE
Outline: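 Compound in DMSO/water pre-incubated 10 min at 37° C with enzyme in 50 mM Tris/HCl pH 8.0, 5 mM DTT, 20% glycerol. After Tris/BME and assay buffer were added, OD340 was read at start. Reaction ran 1 hr at 37° C, then stop solution was added with 30 min colour development.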

enterococci = experiment: Minimum inhibitory concentration, microdilution broth method, enterococci; assay type: cell-based; conditions: Mueller-Hinton broth, 18-22 hours at 35° C.; for MIC: Enterococcus faecalis
Outline: (§1)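 Broth microdilution MIC per NCCLS M7-A5. Staphylococci and enterococci tested in Mueller-Hinton broth; streptococci in Mueller-Hinton broth with 5% lysed horse blood. Strains include clinical isolates resistant to methicillin, penicillin and/or vancomycin.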

staphylococci = experiment: Minimum inhibitory concentration, microdilution broth method, staphylococci; assay type: cell-based; conditions: Mueller-Hinton broth, 18-22 hours at 35° C.; for MIC: Staphylococcus aureus
Outline: as §1

[4] = biological target: E. coli Enopyruvyl-UPD-N-acetylglucosamine reductase, Mur B (Escherichia coli, UniProt P08373); experiment: biochemical; conditions: (E) E. coli enzyme; read-out: MurB IC50 (converted)
Chain of E. coli Enopyruvyl-UPD-N-acetylglucosamine reductase, Mur B (P08373 whole entry): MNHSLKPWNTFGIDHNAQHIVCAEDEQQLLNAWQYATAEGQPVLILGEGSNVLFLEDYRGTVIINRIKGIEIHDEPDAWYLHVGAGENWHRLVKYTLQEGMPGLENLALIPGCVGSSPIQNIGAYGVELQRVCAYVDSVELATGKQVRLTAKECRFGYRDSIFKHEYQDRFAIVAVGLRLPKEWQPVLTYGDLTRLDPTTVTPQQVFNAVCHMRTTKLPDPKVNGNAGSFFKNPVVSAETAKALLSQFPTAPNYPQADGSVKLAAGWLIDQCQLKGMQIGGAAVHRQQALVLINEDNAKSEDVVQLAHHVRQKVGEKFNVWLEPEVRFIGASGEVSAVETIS

[5] = biological target: E. coli Uridine-diphosphate-N-acetylmuramoyl-L-alanine: D-glutamate liease, MurD (Escherichia coli, UniProt P14900); experiment: biochemical; conditions: (E) E. coli enzyme
Chain of E. coli Uridine-diphosphate-N-acetylmuramoyl-L-alanine: D-glutamate liease, MurD (P14900 whole entry): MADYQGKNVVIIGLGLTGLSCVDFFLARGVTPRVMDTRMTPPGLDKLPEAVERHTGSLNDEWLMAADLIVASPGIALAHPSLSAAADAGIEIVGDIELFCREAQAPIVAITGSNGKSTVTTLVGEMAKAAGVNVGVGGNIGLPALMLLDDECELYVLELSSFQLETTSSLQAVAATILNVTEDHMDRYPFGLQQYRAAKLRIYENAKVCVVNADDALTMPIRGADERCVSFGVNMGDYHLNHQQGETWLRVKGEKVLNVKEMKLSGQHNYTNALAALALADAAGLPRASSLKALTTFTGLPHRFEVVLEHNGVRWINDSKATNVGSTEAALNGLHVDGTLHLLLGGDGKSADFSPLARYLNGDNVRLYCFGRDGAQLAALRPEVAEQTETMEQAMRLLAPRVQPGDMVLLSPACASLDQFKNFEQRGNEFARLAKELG
Outline: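 Final buffer 83 mM Tris/HCl pH 8.0, 50 mM MgCl2, 2 mM ATP. Compounds from 10 mg/mL DMSO stocks diluted to 100 μg/mL in 50 mM Tris/HCl pH 8.5 (working solution, not final assay level).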

[6] = biological target: E. coli Uridine-diphosphate-N-acetvimuramoyl: L-alanine lipase, MurC (Escherichia coli, UniProt P17952); experiment: Inhibitory activity against MurC (E. coli); assay type: biochemical; conditions: (E) E. coli enzyme; read-out: MurC IC50 (converted)
Chain of E. coli Uridine-diphosphate-N-acetvimuramoyl: L-alanine lipase, MurC (P17952 whole entry): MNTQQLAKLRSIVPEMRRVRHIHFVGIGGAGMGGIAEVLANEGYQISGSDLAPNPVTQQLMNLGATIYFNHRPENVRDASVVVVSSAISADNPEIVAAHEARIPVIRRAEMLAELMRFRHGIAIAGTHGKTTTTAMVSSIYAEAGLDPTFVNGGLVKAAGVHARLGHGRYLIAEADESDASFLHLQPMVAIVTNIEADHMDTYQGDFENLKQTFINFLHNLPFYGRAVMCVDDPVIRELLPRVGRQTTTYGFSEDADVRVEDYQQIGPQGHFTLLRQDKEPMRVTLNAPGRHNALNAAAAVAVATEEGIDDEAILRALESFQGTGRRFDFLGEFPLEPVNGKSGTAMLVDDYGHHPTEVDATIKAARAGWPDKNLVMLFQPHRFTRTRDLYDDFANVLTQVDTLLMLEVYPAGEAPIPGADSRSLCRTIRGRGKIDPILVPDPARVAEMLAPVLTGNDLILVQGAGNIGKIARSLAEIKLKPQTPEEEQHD

Streptococci = experiment: Minimum inhibitory concentration, microdilution broth method, streptococci; assay type: cell-based; conditions: Mueller-Hinton broth with 5% horse blood, 18-22 hours at 35° C.; for MIC: S. pneumo GC 1894
Outline: as §1

[7] = biological target: T1, S. aureus Uridine-diphosphate-N-acetylmuramoyl-L-alanine: D-glutamate liease, MurD (Staphylococcus aureus, UniProt Q2FZ92); experiment: biochemical; conditions: (S) S. aureus enzyme
T1 sequence (Q2FZ92 1-449): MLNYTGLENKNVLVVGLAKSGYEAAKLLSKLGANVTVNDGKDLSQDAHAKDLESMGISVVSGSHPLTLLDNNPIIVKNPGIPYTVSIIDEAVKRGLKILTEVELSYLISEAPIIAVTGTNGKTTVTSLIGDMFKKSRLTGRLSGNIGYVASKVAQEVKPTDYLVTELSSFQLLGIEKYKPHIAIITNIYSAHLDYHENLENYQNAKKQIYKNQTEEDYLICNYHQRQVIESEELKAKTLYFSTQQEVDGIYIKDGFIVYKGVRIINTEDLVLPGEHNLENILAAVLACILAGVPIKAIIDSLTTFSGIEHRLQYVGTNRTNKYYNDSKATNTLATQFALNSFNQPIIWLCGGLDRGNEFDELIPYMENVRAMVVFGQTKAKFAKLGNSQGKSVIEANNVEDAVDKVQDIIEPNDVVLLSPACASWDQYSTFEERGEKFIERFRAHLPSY
Outline: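 MurD, which catalyses the fourth step of cell wall biosynthesis, was tested for inhibition by compounds. Compounds were made up as 10 mg/mL DMSO stocks and diluted to 100 μg/mL in 50 mM Tris/HCl, pH 8.5.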

[8] = E. faecalis GC 2242, read-out: MIC E. faecalis GC 2242
[9] = E. faecalis GC 4555, read-out: MIC E. faecalis GC 4555
[10] = S. aureus GC 1131, read-out: MIC S. aureus GC 1131
[11] = S. aureus GC 4543, read-out: MIC S. aureus GC 4543

SMILES	Toxicity [1]	Mortality [2] [%]	melting point	pIC50 [3]	MIC (enterococci; [8]) [µg/mL]	MIC (enterococci; [9]) [µg/mL]	MIC (staphylococci; [10]) [µg/mL]	MIC (staphylococci; [11]) [µg/mL]	IC50 [4] [µM]	pIC50 [5]	IC50 [6] [µM]	MIC (Streptococci) [µg/mL]	pIC50 [7]	MIC E. faecalis GC 2242 (enterococci; E. faecalis GC 2242) [µg/mL]	MIC E. faecalis GC 4555 (enterococci; E. faecalis GC 4555) [µg/mL]	MIC S. aureus GC 1131 (staphylococci; S. aureus GC 1131) [µg/mL]	MIC S. aureus GC 4543 (staphylococci; S. aureus GC 4543) [µg/mL]	MIC S. pneumo GC 1894 (Streptococci) [µg/mL]
COc1cc(/C=C2\OC(=O)C(c3cccc(Cl)c3)=C2O)ccc1-c1ccccc1C(F)(F)F	+	29.50	–	–	–	–	–	–	–	–	–	–	–	–	–	–	–	–
COc1ccc(C2=C(O)/C(=C/c3ccc(-c4ccccc4)cc3)OC2=O)cc1 [Example 9]	–	–	266 to 269 °C	< 4.17	8 (≈ 21.6 µM)	64 (≈ 173 µM)	32 (≈ 86.4 µM)	> 128	43.2	< 4.17	> 67.5	< 0.125	–	–	–	–	–	–
Cc1ccc(/C=C2\OC(=O)C(c3cccc(C(F)(F)F)c3)=C2O)s1 [Example 12]	–	–	249 to 251 °C	< 4.15	64 (≈ 182 µM)	> 128	64 (≈ 182 µM)	64 (≈ 182 µM)	> 71	< 4.15	42.6	2 (≈ 5.68 µM)	–	–	–	–	–	–
Cc1ccc(/C=C2\OC(=O)C(c3ccc4ccccc4c3)=C2O)s1 [Example 41]	–	–	144 to 145 °C (dec.)	< 4.13	32 (≈ 95.7 µM)	64 (≈ 191 µM)	32 (≈ 95.7 µM)	64 (≈ 191 µM)	> 74.8	< 4.13	38.9	32 (≈ 95.7 µM)	–	–	–	–	–	–
O=C1O/C(=C\c2cccc3ccccc23)C(O)=C1c1ccc2ccccc2c1 [Example 44]	–	–	205 to 207 °C	4.31	8 (≈ 22 µM)	16 (≈ 43.9 µM)	4 (≈ 11 µM)	8 (≈ 22 µM)	19.2	< 4.16	16.5	1 (≈ 2.74 µM)	–	–	–	–	–	–
O=C1O/C(=C\c2ccc(Cl)cc2)C(O)=C1c1cccc2ccccc12 [Example 46]	–	–	235 to 237 °C	< 4.14	64 (≈ 183 µM)	32 (≈ 91.7 µM)	64 (≈ 183 µM)	32 (≈ 91.7 µM)	> 71.7	< 4.14	45.9	16 (≈ 45.9 µM)	–	–	–	–	–	–
O=C1O/C(=C\c2ccc(-c3ccccc3)cc2)C(O)=C1c1ccc(Cl)cc1Cl [Example 65]	–	–	252 to 256 °C	< 4.21	4 (≈ 9.77 µM)	16 (≈ 39.1 µM)	8 (≈ 19.5 µM)	8 (≈ 19.5 µM)	24.4	4.23	7.33	< 0.125	4.44	–	–	–	–	–
O=C1O/C(=C\c2ccc(-c3ccccc3)cc2)C(O)=C1c1ccc(Cl)c(Cl)c1 [Example 66]	–	–	265 to 269 °C	5.13	0.5 (≈ 1.22 µM)	2 (≈ 4.89 µM)	2 (≈ 4.89 µM)	1 (≈ 2.44 µM)	4.89	4.29	7.33	< 0.125	4.91	–	–	–	–	–
O=C1O/C(=C\c2ccc(-c3ccccc3)cc2)C(O)=C1c1cc(Cl)cc(Cl)c1 [Example 68]	–	–	232 to 235 °C	5.13	–	–	–	–	7.33	4.57	22	–	4.57	1 (≈ 2.44 µM)	2 (≈ 4.89 µM)	2 (≈ 4.89 µM)	2 (≈ 4.89 µM)	<0.125
O=C1O/C(=C\c2ccc3ccccc3c2)C(O)=C1c1ccc(-c2ccccc2)cc1 [Example 103]	–	–	266 to 270 °C	< 4.19	32 (≈ 82 µM)	64 (≈ 164 µM)	> 128	64 (≈ 164 µM)	15.4	< 4.19	41	0.5 (≈ 1.28 µM)	–	–	–	–	–	–
O=C1O/C(=C\c2ccccc2C(F)(F)F)C(O)=C1c1ccc(-c2ccccc2)c(F)c1 [Example 107]	–	–	224 to 228 °C	4.48	2 (≈ 4.69 µM)	8 (≈ 18.8 µM)	4 (≈ 9.38 µM)	2 (≈ 4.69 µM)	9.38	< 4.23	14.1	0.25 (≈ 0.586 µM)	4.40	–	–	–	–	–
O=C1O/C(=C\c2cccc(C(F)(F)F)c2)C(O)=C1c1cccc(-c2ccccc2)c1 [Example 108]	–	–	210 to 212 °C	4.33	2 (≈ 4.9 µM)	8 (≈ 19.6 µM)	2 (≈ 4.9 µM)	2 (≈ 4.9 µM)	24.5	< 4.21	14.7	1 (≈ 2.45 µM)	4.43	–	–	–	–	–
N#Cc1ccc(C2=C(O)C(=Cc3ccc(-c4ccc(Cl)cc4)cc3)OC2=O)cc1 [R=H; R1=4-CN—C6H4; R2=4-(4′-Cl-biphenyl)]	+	64.33	–	–	–	–	–	–	–	–	–	–	–	–	–	–	–	–
N#Cc1ccc(C2=C(O)/C(=C/c3ccc(-c4ccc(C#N)cc4)cc3)OC2=O)cc1 [R=H; R1=4-CN—C6H4; R2=4-(4′CN-biphenyl)]	+	88.60	–	–	–	–	–	–	–	–	–	–	–	–	–	–	–	–
